Activity calls are given as the source filed them. The rule behind the calls is not given here.
Columns and labels:
[1] = biological target: Receptor-type tyrosine-protein kinase FLT3 (Homo sapiens) (UniProt P36888); experiment: Inhibition of FLT3 (unknown origin) at 1 uM measured after 1 hr relative to control
[2] = biological target: Casein kinase I isoform gamma-2 (Homo sapiens) (UniProt P78368); experiment: Inhibition of CSNK1G2 (unknown origin) at 1 uM measured after 1 hr relative to control
[3] = biological target: Cyclin-dependent kinase 1/cyclin B1 (Homo sapiens) (UniProt P06493+P14635); experiment: Inhibition of cdk1/Cyclin B (unknown origin) at 1 uM measured after 1 hr relative to control; assay type: protein-complex assay
[4] = biological target: T1, Serine/threonine-protein kinase BRSK1 (Homo sapiens) (UniProt Q8TDC3); experiment: Inhibition of BRSK1 (unknown origin) at 1 uM measured after 1 hr relative to control
T1 sequence (whole entry): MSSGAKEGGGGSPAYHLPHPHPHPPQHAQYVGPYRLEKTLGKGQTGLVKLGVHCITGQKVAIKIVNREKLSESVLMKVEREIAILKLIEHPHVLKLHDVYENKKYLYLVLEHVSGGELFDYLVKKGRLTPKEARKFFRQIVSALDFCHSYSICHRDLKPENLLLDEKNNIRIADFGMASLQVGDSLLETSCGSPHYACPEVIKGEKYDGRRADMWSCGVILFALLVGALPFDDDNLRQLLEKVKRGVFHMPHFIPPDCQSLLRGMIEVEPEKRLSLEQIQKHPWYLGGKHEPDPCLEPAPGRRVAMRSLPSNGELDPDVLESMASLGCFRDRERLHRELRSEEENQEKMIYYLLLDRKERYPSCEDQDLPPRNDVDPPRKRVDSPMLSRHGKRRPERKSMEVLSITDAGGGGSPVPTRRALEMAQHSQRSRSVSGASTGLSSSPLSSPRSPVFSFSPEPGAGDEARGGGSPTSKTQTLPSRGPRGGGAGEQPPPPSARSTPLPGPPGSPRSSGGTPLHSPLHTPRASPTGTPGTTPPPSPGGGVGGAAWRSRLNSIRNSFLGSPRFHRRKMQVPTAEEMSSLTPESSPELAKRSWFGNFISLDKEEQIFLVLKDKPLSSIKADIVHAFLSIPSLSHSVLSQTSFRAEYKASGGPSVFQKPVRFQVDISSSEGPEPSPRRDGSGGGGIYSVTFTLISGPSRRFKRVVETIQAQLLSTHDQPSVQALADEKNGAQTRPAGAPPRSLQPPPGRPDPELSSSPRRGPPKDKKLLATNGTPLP

[5] = biological target: Glycogen synthase kinase-3 beta (Homo sapiens) (UniProt P49841); experiment: Inhibition of GSK3B (unknown origin) at 1 uM measured after 1 hr relative to control
[6] = biological target: T2, Epidermal growth factor receptor (Homo sapiens, UniProt P00533, L858R/T790M); experiment: (§1) Inhibition of EGF-induced phosphorylation of EGFR T790M/L858R double mutant in human NCI-H1975 cells preincubated for 120 mins followed by EGF stimulation and measured after 10 mins by ELISA; assay type: cell-based
[7] = biological target: Dual specificity tyrosine-phosphorylation-regulated kinase 1A (Homo sapiens) (UniProt Q13627); experiment: Inhibition of DYRK1A (unknown origin) at 1 uM measured after 1 hr relative to control
[8] = biological target: Protein kinase C alpha type (Homo sapiens) (UniProt P17252); experiment: Inhibition of PRKCA (unknown origin) at 1 uM measured after 1 hr relative to control
[9] = biological target: Dual specificity mitogen-activated protein kinase kinase 1 (Homo sapiens) (UniProt Q02750); experiment: Inhibition of MAP2K1 (unknown origin) at 1 uM measured after 1 hr relative to control
[10] = biological target: Serine/threonine-protein kinase PLK2 (Homo sapiens) (UniProt Q9NYY3); experiment: Inhibition of PLK2 (unknown origin) at 1 uM measured after 1 hr relative to control
[11] = biological target: T3, Epidermal growth factor receptor (Homo sapiens, UniProt P00533); experiment: Inhibition of EGF-induced phosphorylation of wild type EGFR in human NCI-H1975 cells preincubated for 120 mins followed by EGF stimulation and measured after 10 mins by ELISA; assay type: cell-based
[12] = biological target: Mitogen-activated protein kinase 8 (Homo sapiens) (UniProt P45983); experiment: Inhibition of MAPK8 (unknown origin) at 1 uM measured after 1 hr relative to control
[13] = biological target: T2, Epidermal growth factor receptor; experiment: Inhibition of EGFR T790M/L858R double mutant (unknown origin) preincubated for 60 mins followed by substrate addition and further incubated for 60 mins in presence of ATP by IMAP-FP assay
[14] = biological target: T3, Epidermal growth factor receptor; experiment: Inhibition of wild type EGFR (unknown origin) preincubated for 60 mins followed by substrate addition and further incubated for 60 mins in presence of ATP by IMAP-FP assay
[15] = biological target: Insulin-like growth factor 1 receptor (Homo sapiens) (UniProt P08069); experiment: Inhibition of IGF1R (unknown origin) at 1 uM measured after 1 hr relative to control
[16] = biological target: Mitogen-activated protein kinase kinase kinase kinase 4 (Homo sapiens) (UniProt O95819); experiment: Inhibition of MAP4K4 (unknown origin) at 1 uM measured after 1 hr relative to control
[17] = biological target: Mitogen-activated protein kinase kinase kinase 9 (Homo sapiens) (UniProt P80192); experiment: Inhibition of MAP3K9 (unknown origin) at 1 uM measured after 1 hr relative to control
[18] = Oral bioavailability in mouse; assay type: ADME, organism-based; conditions: in vivo
[19] = biological target: Serine/threonine-protein kinase B-raf (Homo sapiens) (UniProt P15056); experiment: Inhibition of BRAF (unknown origin) at 1 uM measured after 1 hr relative to control
[20] = biological target: Mitogen-activated protein kinase 3 (Homo sapiens) (UniProt P27361); experiment: Inhibition of MAPK3 (unknown origin) at 1 uM measured after 1 hr relative to control
[21] = biological target: Serine/threonine-protein kinase Chk2 (Homo sapiens) (UniProt O96017); experiment: Inhibition of CHEK2 (unknown origin) at 1 uM measured after 1 hr relative to control
Homo sapiens = species on record: Homo sapiens; experiment: as §1, with “Selectivity ratio of EC50 for inhibition of EGF-induced phosphorylation of wild type EGFR in human NCI-H1975 cells to EC50 for inhibition” for “Inhibition”; assay type: cell-based; conditions: time 130.0 min
NCI-H1975 [22] = experiment: Antitumor activity against human NCI-H1975 cells xenografted in mouse model assessed as tumor growth inhibition at 30 mg/kg, po administered qd measured after 11 days; assay type: functional, organism-based; conditions: time 11.0 day
NCI-H1975 [23] = experiment: Antitumor activity against human NCI-H1975 cells xenografted in mouse model assessed as tumor growth inhibition at 30 mg/kg, po administered bid measured after 11 days relative to control; assay type: functional; conditions: 264 h, time 11 day, read-out: TGI
[24] = Toxicity in mouse xenografted with human NCI-H1975 cells assessed as change in body weight at 30 mg/kg, po administered bid measured after 11 days; assay type: organism-based; conditions: in vivo, 264 h, time 11 day
[25] = Inhibition of EGF-induced phosphorylation of EGFR T790M/L858R double mutant in human NCI-H1975 cells preincubated for 2 hrs followed by EGF stimulation and measured after 10 mins by ELISA; assay type: cell-based

T3 sequence (P00533 whole entry): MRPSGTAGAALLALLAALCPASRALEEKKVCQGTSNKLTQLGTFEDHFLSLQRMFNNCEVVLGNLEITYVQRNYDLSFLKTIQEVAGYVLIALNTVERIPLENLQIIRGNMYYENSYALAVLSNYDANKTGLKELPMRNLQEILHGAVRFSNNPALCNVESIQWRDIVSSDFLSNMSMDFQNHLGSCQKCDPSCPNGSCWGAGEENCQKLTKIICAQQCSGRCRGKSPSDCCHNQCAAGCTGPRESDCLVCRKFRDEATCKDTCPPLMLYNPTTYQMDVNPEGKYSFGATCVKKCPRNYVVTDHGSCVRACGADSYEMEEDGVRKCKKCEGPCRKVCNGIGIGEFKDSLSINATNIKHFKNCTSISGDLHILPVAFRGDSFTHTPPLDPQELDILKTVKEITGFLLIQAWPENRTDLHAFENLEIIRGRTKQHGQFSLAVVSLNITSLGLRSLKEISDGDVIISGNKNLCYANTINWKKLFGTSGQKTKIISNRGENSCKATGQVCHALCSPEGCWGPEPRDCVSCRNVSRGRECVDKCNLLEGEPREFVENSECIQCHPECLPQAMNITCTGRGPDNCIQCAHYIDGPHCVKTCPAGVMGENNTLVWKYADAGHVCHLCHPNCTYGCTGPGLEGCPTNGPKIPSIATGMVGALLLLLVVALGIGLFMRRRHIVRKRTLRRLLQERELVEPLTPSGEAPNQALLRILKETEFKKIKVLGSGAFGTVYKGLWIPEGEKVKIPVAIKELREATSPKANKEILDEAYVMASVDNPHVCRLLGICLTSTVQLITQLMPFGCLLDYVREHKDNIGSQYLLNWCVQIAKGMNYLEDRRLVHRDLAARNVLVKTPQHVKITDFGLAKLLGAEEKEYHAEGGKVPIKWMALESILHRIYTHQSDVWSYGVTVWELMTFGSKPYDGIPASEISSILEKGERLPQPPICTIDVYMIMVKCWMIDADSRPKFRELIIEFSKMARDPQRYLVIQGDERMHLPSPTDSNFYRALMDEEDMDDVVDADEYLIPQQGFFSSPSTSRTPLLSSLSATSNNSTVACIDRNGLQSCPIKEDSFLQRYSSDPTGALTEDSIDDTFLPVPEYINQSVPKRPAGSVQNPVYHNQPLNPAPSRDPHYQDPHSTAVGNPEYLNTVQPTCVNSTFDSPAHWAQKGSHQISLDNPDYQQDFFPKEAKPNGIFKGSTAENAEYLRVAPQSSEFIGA
Sequence of Cyclin-dependent kinase 1/cyclin B1 (Homo sapiens) (P06493 whole entry, looked up): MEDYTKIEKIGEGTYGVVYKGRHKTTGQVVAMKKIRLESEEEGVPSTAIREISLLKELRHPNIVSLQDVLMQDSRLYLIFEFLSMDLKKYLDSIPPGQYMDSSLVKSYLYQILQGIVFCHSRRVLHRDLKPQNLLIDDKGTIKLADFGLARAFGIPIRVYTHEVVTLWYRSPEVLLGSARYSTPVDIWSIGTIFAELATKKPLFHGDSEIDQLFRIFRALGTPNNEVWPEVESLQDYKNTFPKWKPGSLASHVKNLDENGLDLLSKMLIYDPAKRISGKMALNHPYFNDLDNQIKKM
Sequence of Cyclin-dependent kinase 1/cyclin B1 (Homo sapiens) (P14635 whole entry, looked up): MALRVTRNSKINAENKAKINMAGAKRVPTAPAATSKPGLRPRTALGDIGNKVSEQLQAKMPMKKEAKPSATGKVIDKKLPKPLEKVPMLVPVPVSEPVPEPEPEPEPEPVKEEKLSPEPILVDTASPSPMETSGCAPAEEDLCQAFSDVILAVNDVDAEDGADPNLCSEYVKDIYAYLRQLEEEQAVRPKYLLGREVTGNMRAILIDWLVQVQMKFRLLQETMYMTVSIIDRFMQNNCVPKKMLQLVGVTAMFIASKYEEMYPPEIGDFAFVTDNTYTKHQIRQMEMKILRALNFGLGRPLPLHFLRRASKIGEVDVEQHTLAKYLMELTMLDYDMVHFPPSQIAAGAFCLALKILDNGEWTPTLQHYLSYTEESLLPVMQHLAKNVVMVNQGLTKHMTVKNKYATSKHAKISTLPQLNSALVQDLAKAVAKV
T2 sequence (P00533 25-1210 T790M/L858R limits assumed): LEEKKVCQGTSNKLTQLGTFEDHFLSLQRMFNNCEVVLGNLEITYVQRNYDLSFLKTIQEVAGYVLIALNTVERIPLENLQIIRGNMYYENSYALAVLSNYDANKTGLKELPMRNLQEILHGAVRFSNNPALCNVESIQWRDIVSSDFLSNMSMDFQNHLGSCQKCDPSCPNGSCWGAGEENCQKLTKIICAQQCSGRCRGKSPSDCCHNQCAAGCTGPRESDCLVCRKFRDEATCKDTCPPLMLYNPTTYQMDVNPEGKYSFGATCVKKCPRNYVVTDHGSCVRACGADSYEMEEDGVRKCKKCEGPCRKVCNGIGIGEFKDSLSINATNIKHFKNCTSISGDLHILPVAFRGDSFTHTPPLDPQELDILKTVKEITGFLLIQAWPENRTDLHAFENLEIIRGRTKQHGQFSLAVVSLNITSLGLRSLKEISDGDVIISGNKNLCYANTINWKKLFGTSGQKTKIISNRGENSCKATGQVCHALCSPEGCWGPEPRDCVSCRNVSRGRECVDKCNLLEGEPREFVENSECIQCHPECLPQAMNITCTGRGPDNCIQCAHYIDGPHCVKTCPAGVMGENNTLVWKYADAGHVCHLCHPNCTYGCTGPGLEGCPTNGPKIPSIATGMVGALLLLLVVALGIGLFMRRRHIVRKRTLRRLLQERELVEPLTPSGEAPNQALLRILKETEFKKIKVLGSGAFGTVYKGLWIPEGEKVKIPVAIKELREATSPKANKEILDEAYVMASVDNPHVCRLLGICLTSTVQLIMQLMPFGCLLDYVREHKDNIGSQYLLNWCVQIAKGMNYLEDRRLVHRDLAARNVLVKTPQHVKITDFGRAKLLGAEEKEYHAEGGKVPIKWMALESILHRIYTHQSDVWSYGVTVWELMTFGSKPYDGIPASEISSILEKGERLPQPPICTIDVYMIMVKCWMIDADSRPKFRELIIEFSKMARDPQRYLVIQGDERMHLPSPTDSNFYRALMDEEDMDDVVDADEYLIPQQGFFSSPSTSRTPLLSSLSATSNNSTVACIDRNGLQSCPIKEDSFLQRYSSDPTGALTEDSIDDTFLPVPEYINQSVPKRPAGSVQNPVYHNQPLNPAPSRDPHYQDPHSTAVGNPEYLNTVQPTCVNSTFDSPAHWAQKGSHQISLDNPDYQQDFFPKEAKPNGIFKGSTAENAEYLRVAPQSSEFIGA
Sequence of Casein kinase I isoform gamma-2 (Homo sapiens) (P78368 whole entry, looked up, canonical isoform): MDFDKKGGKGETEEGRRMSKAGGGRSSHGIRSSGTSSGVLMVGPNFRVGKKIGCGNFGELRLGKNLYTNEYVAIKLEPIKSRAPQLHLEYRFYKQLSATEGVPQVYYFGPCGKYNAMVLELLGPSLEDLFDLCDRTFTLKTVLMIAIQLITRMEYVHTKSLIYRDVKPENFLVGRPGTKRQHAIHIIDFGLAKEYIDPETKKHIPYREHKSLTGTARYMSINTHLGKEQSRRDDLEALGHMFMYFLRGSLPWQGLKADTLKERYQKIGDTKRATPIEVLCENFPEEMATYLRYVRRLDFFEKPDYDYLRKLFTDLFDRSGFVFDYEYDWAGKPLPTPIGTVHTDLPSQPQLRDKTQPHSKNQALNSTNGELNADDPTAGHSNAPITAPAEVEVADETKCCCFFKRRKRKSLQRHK
Sequence of Glycogen synthase kinase-3 beta (Homo sapiens) (P49841 whole entry, looked up): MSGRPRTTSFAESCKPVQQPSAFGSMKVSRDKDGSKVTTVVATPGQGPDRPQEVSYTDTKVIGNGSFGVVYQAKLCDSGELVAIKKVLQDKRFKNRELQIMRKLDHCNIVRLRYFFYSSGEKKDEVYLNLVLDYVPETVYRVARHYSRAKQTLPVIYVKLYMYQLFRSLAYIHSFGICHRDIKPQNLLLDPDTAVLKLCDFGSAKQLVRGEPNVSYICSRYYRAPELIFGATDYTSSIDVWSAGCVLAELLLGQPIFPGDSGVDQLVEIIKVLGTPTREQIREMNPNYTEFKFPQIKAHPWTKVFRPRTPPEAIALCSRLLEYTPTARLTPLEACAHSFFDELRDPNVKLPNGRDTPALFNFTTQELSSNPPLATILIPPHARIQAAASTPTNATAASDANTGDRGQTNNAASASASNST
Sequence of Serine/threonine-protein kinase Chk2 (Homo sapiens) (O96017 whole entry): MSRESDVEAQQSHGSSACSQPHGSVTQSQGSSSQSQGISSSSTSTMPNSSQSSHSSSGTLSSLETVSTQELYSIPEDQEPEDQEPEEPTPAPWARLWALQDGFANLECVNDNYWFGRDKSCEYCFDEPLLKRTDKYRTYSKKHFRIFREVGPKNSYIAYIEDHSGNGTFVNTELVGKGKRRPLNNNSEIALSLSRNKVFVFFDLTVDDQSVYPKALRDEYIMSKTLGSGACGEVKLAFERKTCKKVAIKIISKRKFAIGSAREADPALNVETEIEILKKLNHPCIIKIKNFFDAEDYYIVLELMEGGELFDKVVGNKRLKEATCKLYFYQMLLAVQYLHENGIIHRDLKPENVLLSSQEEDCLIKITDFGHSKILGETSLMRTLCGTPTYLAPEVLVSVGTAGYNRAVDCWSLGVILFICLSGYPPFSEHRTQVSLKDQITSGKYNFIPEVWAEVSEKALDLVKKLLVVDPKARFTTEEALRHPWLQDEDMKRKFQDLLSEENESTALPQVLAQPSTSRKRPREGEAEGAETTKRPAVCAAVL
Sequence of Dual specificity mitogen-activated protein kinase kinase 1 (Homo sapiens) (Q02750 whole entry): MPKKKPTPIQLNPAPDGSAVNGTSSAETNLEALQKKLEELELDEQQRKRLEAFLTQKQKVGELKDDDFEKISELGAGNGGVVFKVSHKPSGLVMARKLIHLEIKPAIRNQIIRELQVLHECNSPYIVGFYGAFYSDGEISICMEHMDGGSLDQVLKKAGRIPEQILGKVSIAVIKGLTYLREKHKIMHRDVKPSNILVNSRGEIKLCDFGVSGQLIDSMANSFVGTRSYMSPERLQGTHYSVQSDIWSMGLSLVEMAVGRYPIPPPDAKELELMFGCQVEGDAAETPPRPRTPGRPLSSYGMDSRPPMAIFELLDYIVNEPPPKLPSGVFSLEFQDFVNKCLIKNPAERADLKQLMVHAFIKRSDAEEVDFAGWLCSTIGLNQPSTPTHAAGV

| SMILES | inhibition [1] [%] | inhibition [2] [%] | inhibition [3] [%] | inhibition [4] [%] | inhibition [5] [%] | EC50 [6] [µM] | inhibition [7] [%] | inhibition [8] [%] | inhibition [9] [%] | inhibition [10] [%] | EC50 [11] [µM] | inhibition [12] [%] | IC50 [13] [µM] | IC50 [14] [µM] | inhibition [15] [%] | inhibition [16] [%] | inhibition [17] [%] | inhibition [19] [%] | inhibition [20] [%] | inhibition [21] [%] | other results |
| --- | --- | --- | --- | --- | --- | --- | --- | --- | --- | --- | --- | --- | --- | --- | --- | --- | --- | --- | --- | --- | --- |
| C=CC(=O)N1CCC2(CC1)CNC(=O)c1cc(-c3nc(Nc4ccccc4OC)ncc3C)[nH]c12 | 100 | 92 | 89 | 0 | 99 | 0.012 | 98 | 61 | 98 | 86 | 0.165 | 85 | 0.0012 | 0.0014 | 69 | 89 | 98 | 98 | 90 | 96 | bioavailability [18]: 87%; Ratio EC50 (Homo sapiens): 14 |
| COc1ccccc1Nc1nccc(-c2cc3c([nH]2)C2(CCN(C(=O)C#CN(C)C)CC2)CNC3=O)n1 | – | – | – | – | – | 2.18 | – | – | – | – | – | – | 0.0028 | 0.0053 | – | – | – | – | – | – | – |
| C=CC(=O)N1CCC2(CC1)CNC(=O)c1cc(-c3ccnc(Nc4ccccc4OC)c3)[nH]c12 | 16 | 79 | 12 | 18 | 34 | > 10 | 46 | 14 | 80 | 7 | – | 87 | 0.037 | 0.192 | 0 | 80 | 1 | 75 | 81 | 100 | – |
| CC#CC(=O)Nc1cccc(-c2nccc(-c3cc4c([nH]3)C3(CCNCC3)CNC4=O)n2)c1 | – | – | – | – | – | – | – | – | – | – | – | – | 0.499 | – | – | – | – | – | – | – | – |
| C=CC(=O)N1CCC2(CC1)CNC(=O)c1cc(-c3ccnc(Nc4ccccc4OC(C)C)n3)[nH]c12 | 22 | 88 | 8 | 4 | 88 | 0.0088 | 70 | 5 | 48 | 12 | 0.562 | 50 | 0.0013 | 0.0012 | 14 | 32 | 38 | 34 | 40 | 100 | Activity (NCI-H1975 [22]): Active; inhibition in vivo at 30 mg/kg (NCI-H1975 [23]): 60%; Activity [24]: Non-Toxic; bioavailability [18]: 11%; Ratio EC50 (Homo sapiens): 64 |
| C=CC(=O)N1CCC2(CC1)CNC(=O)c1cc(-c3nc(Nc4ccccc4OC)ncc3Cl)[nH]c12 | – | – | – | – | – | 0.0031 | – | – | – | – | 0.277 | – | 0.0008 | 0.0009 | – | – | – | – | – | – | Ratio EC50 (Homo sapiens): 89 |
| C=CC(=O)N1CCC2(CC1)CNC(=O)c1cc(-c3ccnc(-c4cccc(OC)c4)n3)[nH]c12 | – | – | – | – | – | 2.55 | – | – | – | – | – | – | 0.0096 | 0.032 | – | – | – | – | – | – | – |
| C=CC(=O)Nc1cc(Nc2nccc(-c3cn(C)c4ccccc34)n2)c(OC)cc1N(C)CCN(C)C [OSIMERTINIB] | 57 | 5 | 5 | 7 | 12 | – | 0 | 4 | 0 | 0 | – | 0 | – | – | 31 | 78 | 71 | 6 | 0 | 0 | EC50 [25]: 0.015 µM; bioavailability [18]: 45% |
| C=CC(=O)N1CCC2(CC1)CNC(=O)c1cc(-c3ccnc(Nc4ccccc4OC)n3)[nH]c12 | 85 | 81 | 71 | 18 | 85 | 0.04 | 73 | 30 | 72 | 79 | 0.308 | 80 | 0.0009 | 0.0004 | 3 | 91 | 75 | 83 | 69 | 99 | bioavailability [18]: 3.2%; Ratio EC50 (Homo sapiens): 7.7 |
| C=CC(=O)N1CCC2(CC1)CNC(=O)c1cc(-c3ccnc(-c4ccc5c(c4)OCO5)n3)[nH]c12 | – | – | – | – | – | – | – | – | – | – | – | – | 0.0065 | 0.043 | – | – | – | – | – | – | – |

Reference: ChEMBL document CHEMBL5029169, “Discovery and optimization of covalent EGFR T790M/L858R mutant inhibitors” (Bioorg Med Chem Lett, 2021)
